Data: PMC11938014, “Development and Application of Small Molecule–Peptide Conjugates as Cathepsin K-Specific Covalent Irreversible Inhibitors in Human Osteoclast and Lung Cancer” (JACS Au, 2025)

Key:
human osteoclasts = assay: Osteoclast differentiation assay on plastic (TRAP); type: cell-based; conditions: osteoclasts grown on plastic, 7 days
Description: To assess osteoclast differentiation, 7.5 × 10^4 cells from PBMCs, cells preincubated with M-CSF, were cultured in 96-well plates. After 3 days, medium was replaced with differentiation medium (αMEM; M8042 sigma, 10% FBS, 5% Penstrep and L-Glu, BI) supplemented with 25 ng/mL M-CSF and 25 ng/mL RANKL (R&D systems, 390-TN) and different inhibitors: GD20 (1 or 5 μM), ODN (1 or 5 μM), or vehicle. The differentiation medium was changed after 2 and 5 days. Cells were fixed on the 7th day with 4% PFA for 10 min at room temperature, they were washed three times with PBS, and then stained using a TRAP staining kit (Sigma-Aldrich, 387A-1KT) according to the manufacturer’s protocol with additional staining of the nuclei with DAPI. Osteoclast parameters were obtained by analysis of three wells from each- treatment. […] The total osteoclast surface area was determined using ImageJ software by manually tracing individual osteoclasts perimeters.
Figure S7. Identification of fluorescent band identity. […] G els were scanned for fluorescence and then underwent immunoblotting with different cathepsin -specific antibodies . […]
Fluorescence Immunoblot s.ch. = single chain, […]
Quantification of the total number of osteoclasts, and c) osteoclast-cell area in each treatment […]
Figure S9. […] Cathepsin activity was detected by labeling intact osteoclast with GB123, a pan-cathepsin activity-based probe. […]

mouse CTSK in mouse OCs = target: T1, mouse CTSK in mouse OCs (Mus musculus, UniProt P55097); assay: Residual cathepsin activity in mice osteoclasts (GB123 gel); type: cell-based; conditions: 5 μM, 2 h, then GB123 2 h
T1 construct: endogenous in cells; host or cells: osteoclasts differentiated from C57BL/6 mouse bone marrow
T1 sequence (P55097 115-329): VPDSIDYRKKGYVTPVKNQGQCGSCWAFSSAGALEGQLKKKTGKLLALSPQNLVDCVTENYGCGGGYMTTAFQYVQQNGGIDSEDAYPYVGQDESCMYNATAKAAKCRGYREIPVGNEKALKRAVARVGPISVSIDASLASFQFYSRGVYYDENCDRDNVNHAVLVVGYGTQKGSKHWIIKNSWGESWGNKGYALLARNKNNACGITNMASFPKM
Description: Human and mouse CTSK species have a high degree of structural commonality. […] Therefore, to investigate the inhibitors’ cross-reactivity with mouse CTSK, mouse OCs were cultivated with mouse bone marrow cells stimulated with M-CSF and RANKL for 9–10 days. In addition, control cells differentiated into macrophages that highly express active cathepsins but not CTSK and were generated by treatment with M-CSF and IL-4.[49] Both intact OC and macrophage cells were incubated for 2 h with GD20, vehicle, or ODN, followed by a 2 h incubation with pan-cathepsin probe GB123. The CTSK-specific fluorescent band near 25 kDa disappeared in cells treated with GD20, whereas the other competing band remained unaltered (Figure 7a). Mice OS samples were blotted to identify the different cathepsins in the sample (Figure S9b).
Figure 7 CTSK inhibition in mice osteoclasts. (a) Activity and expression of CTSK in mouse OCs were assessed in the presence of indicated inhibitors. Intact OCs were treated for 2 h with 5 μM inhibitor in the culture medium, followed by 2 h of labeling of residual enzyme activity by GB123. Samples were analyzed by SDS-PAGE and scanned for fluorescence with a Typhoon scanner at 635/670 nm. Western blot with anti-CTSK is shown aside. […] Samples were analyzed by SDS-PAGE and scanned for fluorescence with a Typhoon scanner at 635/670 nm. […]

## CC(C)C[C@H](N[C@@H](c1ccc(-c2ccc(S(C)(=O)=O)cc2)cc1)C(F)(F)F)C(=O)NCC(=O)COC(=O)[C@@H]1CCCN1C(=O)[C@H](CC(C)C)NC(=O)OCC1c2ccccc2-c2ccccc21 [GD20]
Human osteoclasts
  total osteoclast area: slightly decreased
Mouse CTSK in mouse OCs
  CTSK-specific fluorescent band near 25 kDa: disappeared
